US20140113898A1, “BISARYLSULFONE AND DIALKYLARYLSULFONE COMPOUNDS AS CALCIUM CHANNEL BLOCKERS” (Zalicus Pharmaceuticals Ltd., priority 2010, published 2014)

Target: T1, CaV2.2 (Homo sapiens, UniProt Q00975)
T1 construct: expressed in transfected cells; host or cells: unnamed doxycycline-inducible cell line
Assay: High-throughput CaV2.2/Kir2.3 FLIPR fluorescent assay
Type: cell-based
Details: Table 4; Fluo-4 FLIPR; closed or inactivated state not stated; read-out: FLIPR data CaV2.2
Experimental: Cells were plated in 384-well, clear-bottom, black-walled, poly-D-lysine coated plates (Becton Dickinson, Franklin Lake, N.J.) 2 days prior to use in the FLIPR assay. 100 μL of cells (1.4×10^6 cell/mL) containing doxycyline (Sigma-Aldrich, 1.5 μg/mL; to induce channel expression) were added to each well using a Multidrop (Thermo Scientific, Waltham, Mass.) and were maintained in 5% CO2 incubator at 37° C. On the morning of the assay, cells were transferred to a 5% CO2 incubator at 29° C.
Cells were washed with a wash buffer containing (in mM): 118 NaCl, 18.4 HEPES, 11.7 D-glucose, 2 CaCl2, 0.5 MgSO4, 4.7 KCl, 1.2 KH2PO4, pH adjusted to 7.2 with NaOH. 4.4 μM of the fluorescent indicator dye, Fluo-4 (Invitrogen), prepared in pluronic acid (Sigma-Aldrich), was loaded into the wells and incubated for 45 minutes at 29° C. in 5% CO2. Cells were then rinsed with either a 2 mM KCl closed-state buffer (in mM: 138.5 NaCl, 10 HEPES, 10 D-glucose, 1 CaCl2, and 2 KCl, with the pH adjusted to 7.4 with NaOH) when performing the closed-state assay or 12.5 mM KCl inactivated-state buffer (in mM: 128 NaCl, 10 HEPES, 10 D-glucose, 1 CaCl2, and 12.5 mM KCl, with the pH adjusted to 7.4 with NaOH) when performing the inactivated-state assay.
Calcium entry was evoked with an addition of 130 mM KCl stimulation buffer (in mM: 10.5 NaCl, 10 HEPES, 10 D-glucose, 1 CaCl2, and 130 KCl, with the pH adjusted to 7.4 with NaOH) for both the closed-state or inactivated-state assay. A change in the Fluo-4 fluorescence signal was assessed using FLIPR^TETRA™ instrument (Molecular Devices, Sunnyvale, Calif.) for 3 minutes following the elevation of extracellular KCl using an illumination wavelength of 470-495 nm with emissions recorded at 515-575 nm.
Concentration-dependent response curves were obtained by comparing the fluorescence signal in the presence of compound and fitted with a logistic function (1) to obtain the concentration that inhibited 50% (IC50) of the RLU signal using OriginPro v.7.5 software (OriginLab, Northampton, Mass.).
To assess the quality of the FLIPR assays the Z-factor (2) was used to quantify the suitability of the assay conditions using the following equation: […]
Data are expressed as mean and standard deviation (SD).

T1 sequence (Q00975 whole entry): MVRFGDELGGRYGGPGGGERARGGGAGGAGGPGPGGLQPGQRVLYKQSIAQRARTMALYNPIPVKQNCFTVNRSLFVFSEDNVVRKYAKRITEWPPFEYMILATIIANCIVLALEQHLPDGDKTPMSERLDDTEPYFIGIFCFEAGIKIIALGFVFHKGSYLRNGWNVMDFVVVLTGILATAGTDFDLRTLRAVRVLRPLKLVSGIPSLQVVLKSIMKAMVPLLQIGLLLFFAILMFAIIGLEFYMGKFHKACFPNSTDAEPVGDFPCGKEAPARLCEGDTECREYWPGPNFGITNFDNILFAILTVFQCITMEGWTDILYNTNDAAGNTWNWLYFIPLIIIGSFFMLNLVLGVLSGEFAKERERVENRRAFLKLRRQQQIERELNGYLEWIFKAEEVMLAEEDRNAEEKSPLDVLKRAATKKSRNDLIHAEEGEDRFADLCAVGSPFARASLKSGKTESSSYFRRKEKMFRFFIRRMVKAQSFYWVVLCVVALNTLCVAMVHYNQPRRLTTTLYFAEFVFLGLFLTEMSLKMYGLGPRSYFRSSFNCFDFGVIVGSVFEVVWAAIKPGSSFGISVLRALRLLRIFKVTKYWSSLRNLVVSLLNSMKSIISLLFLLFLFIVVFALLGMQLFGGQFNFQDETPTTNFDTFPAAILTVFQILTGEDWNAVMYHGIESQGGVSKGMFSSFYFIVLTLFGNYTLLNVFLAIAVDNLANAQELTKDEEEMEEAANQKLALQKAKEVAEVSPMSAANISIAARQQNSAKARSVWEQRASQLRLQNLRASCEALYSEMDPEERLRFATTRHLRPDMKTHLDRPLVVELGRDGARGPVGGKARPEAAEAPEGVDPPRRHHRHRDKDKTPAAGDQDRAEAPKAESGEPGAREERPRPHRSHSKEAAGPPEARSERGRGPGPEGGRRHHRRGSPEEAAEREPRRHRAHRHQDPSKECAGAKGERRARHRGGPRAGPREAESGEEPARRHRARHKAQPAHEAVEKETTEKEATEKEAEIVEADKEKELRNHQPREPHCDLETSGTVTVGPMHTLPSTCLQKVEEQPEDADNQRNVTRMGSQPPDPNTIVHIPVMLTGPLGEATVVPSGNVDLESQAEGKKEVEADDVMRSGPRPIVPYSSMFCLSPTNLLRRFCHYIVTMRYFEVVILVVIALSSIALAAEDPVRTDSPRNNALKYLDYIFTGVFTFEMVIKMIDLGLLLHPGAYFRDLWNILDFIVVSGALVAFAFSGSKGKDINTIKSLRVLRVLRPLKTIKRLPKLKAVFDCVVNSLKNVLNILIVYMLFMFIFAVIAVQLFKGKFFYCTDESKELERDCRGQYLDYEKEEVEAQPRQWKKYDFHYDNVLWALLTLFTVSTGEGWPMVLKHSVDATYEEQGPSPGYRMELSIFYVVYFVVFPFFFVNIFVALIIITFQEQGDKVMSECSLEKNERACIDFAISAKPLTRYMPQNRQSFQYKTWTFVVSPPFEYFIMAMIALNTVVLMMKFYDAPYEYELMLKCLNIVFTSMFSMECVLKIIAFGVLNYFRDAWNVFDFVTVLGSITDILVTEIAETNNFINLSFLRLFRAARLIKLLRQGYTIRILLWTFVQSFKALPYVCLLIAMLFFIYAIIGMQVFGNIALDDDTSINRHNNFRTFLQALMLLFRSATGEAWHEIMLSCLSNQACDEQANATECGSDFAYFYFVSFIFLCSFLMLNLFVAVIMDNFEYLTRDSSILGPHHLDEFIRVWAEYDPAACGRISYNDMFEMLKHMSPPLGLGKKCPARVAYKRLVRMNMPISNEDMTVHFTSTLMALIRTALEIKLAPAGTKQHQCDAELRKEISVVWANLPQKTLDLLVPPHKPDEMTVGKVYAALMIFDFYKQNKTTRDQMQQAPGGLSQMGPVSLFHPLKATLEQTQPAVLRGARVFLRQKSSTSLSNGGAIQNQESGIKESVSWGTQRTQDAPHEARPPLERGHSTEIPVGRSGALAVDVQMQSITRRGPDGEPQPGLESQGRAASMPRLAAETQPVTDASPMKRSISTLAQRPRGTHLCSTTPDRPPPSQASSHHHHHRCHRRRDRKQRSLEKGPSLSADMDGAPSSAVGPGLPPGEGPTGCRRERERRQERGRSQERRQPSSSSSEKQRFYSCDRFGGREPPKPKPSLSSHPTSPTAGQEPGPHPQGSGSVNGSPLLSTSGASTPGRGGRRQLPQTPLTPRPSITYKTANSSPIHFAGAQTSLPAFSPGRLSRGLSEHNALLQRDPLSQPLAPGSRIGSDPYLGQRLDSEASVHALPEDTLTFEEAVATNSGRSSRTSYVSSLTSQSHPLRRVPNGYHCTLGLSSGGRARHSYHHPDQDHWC
T1 sequence (P54284 whole entry partner): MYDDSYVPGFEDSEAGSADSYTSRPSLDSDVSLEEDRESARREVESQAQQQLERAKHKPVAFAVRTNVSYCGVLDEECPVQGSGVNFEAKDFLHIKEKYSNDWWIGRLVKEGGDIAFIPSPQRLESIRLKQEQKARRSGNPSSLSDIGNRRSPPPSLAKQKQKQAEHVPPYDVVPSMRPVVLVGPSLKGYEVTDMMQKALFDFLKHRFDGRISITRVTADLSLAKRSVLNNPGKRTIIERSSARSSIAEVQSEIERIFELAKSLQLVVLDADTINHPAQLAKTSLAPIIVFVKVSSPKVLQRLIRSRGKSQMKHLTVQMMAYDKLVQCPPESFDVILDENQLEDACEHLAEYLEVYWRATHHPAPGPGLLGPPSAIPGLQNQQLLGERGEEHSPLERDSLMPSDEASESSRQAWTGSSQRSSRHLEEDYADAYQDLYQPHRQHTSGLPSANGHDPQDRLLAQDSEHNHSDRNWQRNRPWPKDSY
T1 sequence (P54289 25-946 partner limits assumed): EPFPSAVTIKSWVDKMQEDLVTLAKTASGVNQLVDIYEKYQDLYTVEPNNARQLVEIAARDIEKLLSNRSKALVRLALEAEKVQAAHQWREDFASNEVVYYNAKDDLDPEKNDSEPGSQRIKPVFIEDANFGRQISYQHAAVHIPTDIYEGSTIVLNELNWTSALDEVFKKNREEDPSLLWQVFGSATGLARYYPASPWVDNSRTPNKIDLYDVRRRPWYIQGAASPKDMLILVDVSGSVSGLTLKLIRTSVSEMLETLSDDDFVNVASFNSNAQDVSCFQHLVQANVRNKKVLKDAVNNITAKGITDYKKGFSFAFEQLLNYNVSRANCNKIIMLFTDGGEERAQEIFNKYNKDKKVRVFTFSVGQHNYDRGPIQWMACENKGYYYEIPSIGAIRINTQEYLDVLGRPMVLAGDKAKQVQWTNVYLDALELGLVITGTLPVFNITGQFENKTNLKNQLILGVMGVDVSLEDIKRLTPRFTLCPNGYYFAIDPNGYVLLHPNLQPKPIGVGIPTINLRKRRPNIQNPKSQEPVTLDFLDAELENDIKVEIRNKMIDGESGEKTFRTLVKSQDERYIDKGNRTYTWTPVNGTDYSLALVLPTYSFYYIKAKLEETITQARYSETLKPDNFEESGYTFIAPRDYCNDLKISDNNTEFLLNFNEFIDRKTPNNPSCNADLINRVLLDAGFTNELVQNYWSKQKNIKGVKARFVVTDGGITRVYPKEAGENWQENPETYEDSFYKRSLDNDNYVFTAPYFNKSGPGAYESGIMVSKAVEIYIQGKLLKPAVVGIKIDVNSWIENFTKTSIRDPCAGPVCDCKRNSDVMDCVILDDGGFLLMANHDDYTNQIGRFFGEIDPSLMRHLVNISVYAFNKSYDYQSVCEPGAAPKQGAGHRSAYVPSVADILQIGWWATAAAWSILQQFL
T1 sequence (P54289 947-1103 partner limits assumed): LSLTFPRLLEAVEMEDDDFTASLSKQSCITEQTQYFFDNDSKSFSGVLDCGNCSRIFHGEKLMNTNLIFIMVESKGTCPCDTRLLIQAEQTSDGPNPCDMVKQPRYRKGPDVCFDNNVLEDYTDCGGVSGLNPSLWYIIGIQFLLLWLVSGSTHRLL

Row | IC50 [µM] | SMILES
1 | 3.75 | O=C(NCc1ccccc1S(=O)(=O)c1cccc(C(F)(F)F)c1)[C@H]1CCCN1 [Compound 78, (R)-N-(2-((3-(trifluoromethyl)phenyl)sulfonyl)benzyl)pyrrolidine-2-carboxamide]
2 | 0.97 | CO[C@H]1CN[C@@H](C(=O)NCc2ccc(S(=O)(=O)c3cccc(C(F)(F)F)c3)cc2)C1 [Compound 82, (2R,4R)-4-methoxy-N-(4-((3-(trifluoromethyl)phenyl)sulfonyl)benzyl)pyrrolidine-2-carboxamide]
3 | 2.28 | CN1CCCCC1C(=O)NCc1ccc(S(=O)(=O)c2cccc(C(F)(F)F)c2)cc1 (centres unmarked) [Compound 84, 1-methyl-N-(4-((3-(trifluoromethyl)phenyl)sulfonyl)benzyl)piperidine-2-carboxamide]
4 | 1.94 | CC1(C(=O)NCc2ccc(S(=O)(=O)c3cccc(C(F)(F)F)c3)cc2)CCCCN1 (centres unmarked) [Compound 85, 2-methyl-N-(4-((3-(trifluoromethyl)phenyl)sulfonyl)benzyl)piperidine-2-carboxamide]
5 | 2.33 | CS(=O)(=O)c1nc(C(F)(F)F)ccc1C(=O)NCc1ccc(S(=O)(=O)c2cccc(C(F)(F)F)c2)cn1 [Compound 92, 2-(methylsulfonyl)-6-(trifluoromethyl)-N-((5-((3-(trifluoromethyl)phenyl)sulfonyl)pyridin-2-yl)methyl)nicotinamide]
6 | 1.32 | O=C(NCc1ccc(S(=O)(=O)c2cccc(C(F)(F)F)c2)cn1)c1ccnn1CC(F)(F)F [Compound 100, 1-(2,2,2-trifluoroethyl)-N-((5-((3-(trifluoromethyl)phenyl)sulfonyl)pyridin-2-yl)methyl)-1H-pyrazole-5-carboxamide]
7 | 1.46 | COc1cc(C(=O)NCc2ccc(S(=O)(=O)c3cccc(C(F)(F)F)c3)cn2)cc(Cl)n1 [Compound 101, 2-chloro-6-methoxy-N-((5-((3-(trifluoromethyl)phenyl)sulfonyl)pyridin-2-yl)methyl)isonicotinamide]
8 | 1.41 | O=C(NCc1ccc(S(=O)(=O)c2cccc(C(F)(F)F)c2)cn1)c1ccnc(C(F)(F)F)c1 [Compound 102, 2-(trifluoromethyl)-N-((5-((3-(trifluoromethyl)phenyl)sulfonyl)pyridin-2-yl)methyl)isonicotinamide]
9 | 2.51 | O=C(CCC(F)(F)F)NCc1ccc(S(=O)(=O)c2cccc(C(F)(F)F)c2)cn1 [Compound 105, 4,4,4-trifluoro-N-((5-((3-(trifluoromethyl)phenyl)sulfonyl)pyridin-2-yl)methyl)butanamide]
10 | 5.85 | O=C(NCc1ccc(S(=O)(=O)c2cccc(C(F)(F)F)c2)cn1)[C@H]1C[C@@H](O)CN1 [Compound 106, (2R,4R)-4-hydroxy-N-((5-((3-(trifluoromethyl)phenyl)sulfonyl)pyridin-2-yl)methyl)pyrrolidine-2-carboxamide]

The next lines start with the compound.

Row | SMILES | IC50 [µM]
11 | O=C(NCc1ccc(S(=O)(=O)c2cccc(C(F)(F)F)c2)cc1)C1CCCN1 (stereo in doubt) [Compound 77, (R)-N-(4-((3-(trifluoromethyl)phenyl)sulfonyl)benzyl)pyrrolidine-2-carboxamide] | 0.69
12 | O=C(NCc1ccccc1S(=O)(=O)c1cccc(C(F)(F)F)c1)c1ccc(C(F)(F)F)nc1 [Compound 38] | 1.12
13 | CS(=O)(=O)c1nc(C(F)(F)F)ccc1C(=O)NCc1ccccc1S(=O)(=O)c1cccc(C(F)(F)F)c1 [Compound 40] | 7
14 | O=C(NCc1ccccc1S(=O)(=O)c1cccc(C(F)(F)F)c1)c1cnc(C(F)(F)F)nc1 [Compound 45, 2-(trifluoromethyl)-N-(2-((3-(trifluoromethyl)phenyl)sulfonyl)benzyl)pyrimidine-5-carboxamide] | 1.11
15 | O=C(NCc1ccccc1S(=O)(=O)c1cccc(C(F)(F)F)c1)c1ccnc(C(F)(F)F)n1 [Compound 46, 2-(trifluoromethyl)-N-(2-((3-(trifluoromethyl)phenyl)sulfonyl)benzyl)pyrimidine-4-carboxamide] | 1.74
16 | O=C(NCc1ccccc1S(=O)(=O)c1cccc(C(F)(F)F)c1)c1ccnn1CC(F)(F)F [Compound 48, 1-(2,2,2-trifluoroethyl)-N-(2-((3-(trifluoromethyl)phenyl)sulfonyl)benzyl)-1H-pyrazole-5-carboxamide] | 1.65
17 | COc1cc(C(=O)NCc2ccccc2S(=O)(=O)c2cccc(C(F)(F)F)c2)cc(Cl)n1 [Compound 49, 2-chloro-6-methoxy-N-(2-((3-(trifluoromethyl)phenyl)sulfonyl)benzyl)isonicotinamide] | 1.04
18 | O=C(NCc1ccccc1S(=O)(=O)c1cccc(C(F)(F)F)c1)c1ccnc(C(F)(F)F)c1 [Compound 50, 2-(trifluoromethyl)-N-(2-((3-(trifluoromethyl)phenyl)sulfonyl)benzyl)isonicotinamide] | 1.21
19 | O=C(CCC(F)(F)F)NCc1ccccc1S(=O)(=O)c1cccc(C(F)(F)F)c1 [Compound 55, 4,4,4-trifluoro-N-(2-((3-(trifluoromethyl)phenyl)sulfonyl)benzyl)butanamide] | 2.68
20 | O=C(NCc1ccc(S(=O)(=O)c2cccc(C(F)(F)F)c2)cc1)C1CCCCN1 (centres unmarked) [Compound 59, N-(4-((3-(trifluoromethyl)phenyl)sulfonyl)benzyl)piperidine-2-carboxamide] | 1
21 | NC1(C(=O)NCc2ccc(S(=O)(=O)c3cccc(C(F)(F)F)c3)cc2)CCOCC1 [Compound 60, 4-amino-N-(4-((3-(trifluoromethyl)phenyl)sulfonyl)benzyl)tetrahydro-2H-pyran-4-carboxamide] | 4.23
22 | NC1(C(=O)NCc2ccc(S(=O)(=O)c3cccc(C(F)(F)F)c3)cc2)CCS(=O)(=O)CC1 [Compound 61, 4-amino-N-(4-((3-(trifluoromethyl)phenyl)sulfonyl)benzyl)tetrahydro-2H-thiopyran-4-carboxamide 1,1-dioxide] | 4.68
23 | CO[C@H]1CN[C@@H](C(=O)NCc2ccc(S(=O)(=O)c3cccc(C(F)(F)F)c3)cc2)C1 [Compound 62, (2R,4R)-4-methoxy-N-(4-((3-(trifluoromethyl)phenyl)sulfonyl)benzyl)pyrrolidine-2-carboxamide] | 0.62
24 | CC(C)(N)C(=O)NCc1ccc(S(=O)(=O)c2cccc(C(F)(F)F)c2)cc1 [Compound 64, 2-amino-2-methyl-N-(4-((3-(trifluoromethyl)phenyl)sulfonyl)benzyl)propanamide] | 4.07
25 | NC1(C(=O)NCc2ccc(S(=O)(=O)c3cccc(C(F)(F)F)c3)cc2)CC1 [Compound 65, 1-amino-N-(4-((3-(trifluoromethyl)phenyl)sulfonyl)benzyl)cyclopropanecarboxamide] | 5.63
26 | NC1(C(=O)NCc2ccc(S(=O)(=O)c3cccc(C(F)(F)F)c3)cc2)CCC1 [Compound 66, 1-amino-N-(4-((3-(trifluoromethyl)phenyl)sulfonyl)benzyl)cyclobutanecarboxamide] | 1.93
27 | O=C(NCc1ccc(S(=O)(=O)c2cccc(C(F)(F)F)c2)cc1)[C@@H]1C[C@@H](F)CN1 [Compound 68, (2S,4R)-4-fluoro-N-(4-((3-(trifluoromethyl)phenyl)sulfonyl)benzyl)pyrrolidine-2-carboxamide] | 2.3
28 | O=C(NCc1ccccc1S(=O)(=O)c1cccc(C(F)(F)F)c1)[C@@H]1C[C@@H](F)CN1 [Compound 69, (2S,4R)-4-fluoro-N-(2-((3-(trifluoromethyl)phenyl)sulfonyl)benzyl)pyrrolidine-2-carboxamide] | 9.14
29 | O=C(NCc1ccc(S(=O)(=O)c2cccc(C(F)(F)F)c2)cc1)[C@@H]1C[C@H](F)CN1 [Compound 70, (2S,4S)-4-fluoro-N-(4-((3-(trifluoromethyl)phenyl)sulfonyl)benzyl)pyrrolidine-2-carboxamide] | 4.74
30 | O=C(NCc1ccc(S(=O)(=O)c2cccc(C(F)(F)F)c2)cc1)[C@@H]1CCCN1 [Compound 73, (S)-N-(4-((3-(trifluoromethyl)phenyl)sulfonyl)benzyl)pyrrolidine-2-carboxamide] | 1.92
31 | O=C(NCc1ccc(S(=O)(=O)c2cccc(C(F)(F)F)c2)cc1)[C@@H]1C[C@@H](O)CN1 [Compound 74, (2S,4R)-4-hydroxy-N-(4-((3-(trifluoromethyl)phenyl)sulfonyl)benzyl)pyrrolidine-2-carboxamide] | 2.36
32 | O=C(NCc1ccccc1S(=O)(=O)c1cccc(C(F)(F)F)c1)[C@@H]1CCCN1 [Compound 76, (S)-N-(2-((3-(trifluoromethyl)phenyl)sulfonyl)benzyl)pyrrolidine-2-carboxamide] | 5.54
